Several values for one entry are separate records, joined by “and”; a condition that tells them apart may be missing. Identical values can stand only once. Toxic doses and inconclusive results are not listed.
System: L1210 leukemia ip in BDF1 mice, survival T/C
Test: NCI In Vivo Anticancer Drug Screen. Data for tumor model L1210 Leukemia (intraperitoneal) in B6D2F1 (BDF1) mice
Conditions: endpoint: mean survival time, higher = longer survival
Summary of the method: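 Transplanted-tumor mice were given test agent; controls received vehicle only. Survival readings from the two groups were divided (treated over control).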

[1] = dose: 100.0 mg/kg/injection, schedule: Q01DX009 (ip), vehicle: Klucel (hydroxypropylcellulose) (HPC)
[2] = dose: 200.0 mg/kg/injection, schedule: Q01DX009 (ip), vehicle: Klucel (hydroxypropylcellulose) (HPC)
[3] = dose: 100.0 mg/kg/injection, schedule: Q01DX001 (ip), vehicle: carboxymethylcellulose (CMC)
[4] = dose: 200.0 mg/kg/injection, schedule: Q01DX001 (ip), vehicle: carboxymethylcellulose (CMC)
[5] = dose: 400.0 mg/kg/injection, schedule: Q01DX001 (ip), vehicle: carboxymethylcellulose (CMC)
[6] = dose: 75.0 mg/kg/injection, schedule: Q01DX001 (ip), vehicle: saline
[7] = dose: 75.0 mg/kg/injection, schedule: Q04DX003 (ip), vehicle: saline
[8] = dose: 150.0 mg/kg/injection, schedule: Q01DX001 (ip), vehicle: saline
[9] = dose: 150.0 mg/kg/injection, schedule: Q04DX003 (ip), vehicle: saline
[10] = dose: 200.0 mg/kg/injection, schedule: Q01DX009 (ip), vehicle: other
[11] = dose: 100.0 mg/kg/injection, schedule: Q04DX002 (ip), vehicle: Klucel (hydroxypropylcellulose) (HPC)
[12] = dose: 200.0 mg/kg/injection, schedule: Q04DX002 (ip), vehicle: Klucel (hydroxypropylcellulose) (HPC)
[13] = dose: 400.0 mg/kg/injection, schedule: Q04DX002 (ip), vehicle: Klucel (hydroxypropylcellulose) (HPC)
[14] = dose: 50.0 mg/kg/injection, schedule: Q01DX009 (ip), vehicle: saline with Tween-80
[15] = dose: 100.0 mg/kg/injection, schedule: Q01DX009 (ip), vehicle: saline with Tween-80
[16] = dose: 200.0 mg/kg/injection, schedule: Q01DX009 (ip), vehicle: saline with Tween-80
[17] = dose: 100.0 mg/kg/injection, schedule: Q04DX003 (ip), vehicle: Klucel (hydroxypropylcellulose) (HPC)
[18] = dose: 200.0 mg/kg/injection, schedule: Q04DX003 (ip), vehicle: Klucel (hydroxypropylcellulose) (HPC)
[19] = dose: 400.0 mg/kg/injection, schedule: Q04DX003 (ip), vehicle: Klucel (hydroxypropylcellulose) (HPC)
[20] = dose: 100.0 mg/kg/injection, schedule: Q04DX003 (ip), vehicle: other

## C/C(=N\N=C(N)N)c1cccc(NC(=S)Nc2cccc(/C(C)=N/N=C(N)N)c2)c1
dose: 20.0 mg/kg/injection, schedule: Q01DX005 (ip), vehicle: saline with Tween-80
  T/C: 108 % of control

## CCCCOC(=O)c1ccc(NC(=O)Nc2ccc(SC)cc2)cc1
[1]
  T/C: 95 % of control
[2]
  T/C: 95 % of control
dose: 400.0 mg/kg/injection, schedule: Q01DX009 (ip), vehicle: Klucel (hydroxypropylcellulose) (HPC)
  T/C: 95 % of control

## COc1ccc(C(OC(=O)c2ccc([N+](=O)[O-])cc2)c2ccccc2)cc1 (centres undefined)
[3]
  T/C: 88 % of control
[4]
  T/C: 91 % of control
[5]
  T/C: 93 % of control

## O=C1/C(=C/c2ccccc2)CCC2C1CCCC21OCCO1 (centres undefined)
[6]
  T/C: 97 % of control
[7]
  T/C: 100 % of control
[8]
  T/C: 95 % of control
[9]
  T/C: 103 % of control
dose: 300.0 mg/kg/injection, schedule: Q01DX001 (ip), vehicle: saline
  T/C: 107 % of control
dose: 300.0 mg/kg/injection, schedule: Q04DX003 (ip), vehicle: saline
  T/C: 101 % of control

## CC(=O)NC(CCC(N)=O)C(=O)O (centres undefined)
dose: 100.0 mg/kg/injection, schedule: Q04DX002 (ip), vehicle: saline
  T/C: 99 % of control
dose: 200.0 mg/kg/injection, schedule: Q04DX002 (ip), vehicle: saline
  T/C: 89 % of control
dose: 400.0 mg/kg/injection, schedule: Q04DX002 (ip), vehicle: saline
  T/C: 96 % of control

## S=C(Nc1ccccc1)N(C1CCCCC1)C1CCCCC1
dose: 400.0 mg/kg/injection, schedule: Q01DX009 (ip), vehicle: saline with Tween-80
  T/C: 158 % of control

## NNC(=O)c1ccc(S(N)(=O)=O)cc1
dose: 12.5 mg/kg/injection, schedule: Q01DX009 (ip), vehicle: water
  T/C: 93 % of control
dose: 25.0 mg/kg/injection, schedule: Q01DX009 (ip), vehicle: water
  T/C: 96 % of control
dose: 50.0 mg/kg/injection, schedule: Q01DX009 (ip), vehicle: water
  T/C: 343 % of control
dose: 59.0 mg/kg/injection, schedule: Q01DX009 (ip), vehicle: other
  T/C: 93 % of control and 103 % of control
dose: 89.0 mg/kg/injection, schedule: Q01DX009 (ip), vehicle: other
  T/C: 97 % of control and 92 % of control
dose: 100.0 mg/kg/injection, schedule: Q01DX009 (ip), vehicle: water
  T/C: 403 % of control
dose: 133.0 mg/kg/injection, schedule: Q01DX009 (ip), vehicle: other
  T/C: 101 % of control and 87 % of control
[10]
  T/C: 99 % of control and 90 % of control
dose: 200.0 mg/kg/injection, schedule: Q01DX009 (ip), vehicle: water
  T/C: 459 % of control
dose: 300.0 mg/kg/injection, schedule: Q01DX009 (ip), vehicle: other
  T/C: 94 % of control and 99 % of control

## O=C1OC(=O)C23CC=CCC12CC=CC3 (centres undefined)
dose: 50.0 mg/kg/injection, schedule: Q01DX001 (ip), vehicle: carboxymethylcellulose (CMC)
  T/C: 104 % of control
[3]
  T/C: 113 % of control
[4]
  T/C: 102 % of control
[5]
  T/C: 104 % of control

## O=C(/C=C/c1ccc([N+](=O)[O-])s1)c1cccc([N+](=O)[O-])c1
[11]
  T/C: 91 % of control
[12]
  T/C: 100 % of control
[13]
  T/C: 100 % of control

## CC1(C)COP(=O)(O)OC1
[14]
  T/C: 105 % of control
dose: 100.0 mg/kg/injection, schedule: Q01DX001 (ip), vehicle: saline
  T/C: 101 % of control
[15]
  T/C: 96 % of control
dose: 200.0 mg/kg/injection, schedule: Q01DX001 (ip), vehicle: saline
  T/C: 93 % of control
[16]
  T/C: 91 % of control

## CCOC/C=C\c1ccccc1
[14]
  T/C: 95 % of control
[15]
  T/C: 92 % of control
[16]
  T/C: 92 % of control

## [Si]c1ccc(-c2ccccc2)cc1
dose: 25.6 mg/kg/injection, schedule: Q04DX002 (ip), vehicle: saline with Tween-80
  T/C: 101 % of control
dose: 64.0 mg/kg/injection, schedule: Q04DX002 (ip), vehicle: saline with Tween-80
  T/C: 97 % of control
dose: 100.0 mg/kg/injection, schedule: Q04DX003 (ip), vehicle: saline with Tween-80
  T/C: 87 % of control
dose: 160.0 mg/kg/injection, schedule: Q04DX002 (ip), vehicle: saline with Tween-80
  T/C: 87 % of control
dose: 400.0 mg/kg/injection, schedule: Q04DX002 (ip), vehicle: saline with Tween-80
  T/C: 90 % of control

## Cc1cc(C)c(OCC2CO2)c(C)c1 (centres undefined)
[17]
  T/C: 105 % of control
[18]
  T/C: 95 % of control
[19]
  T/C: 89 % of control

## Nc1nc(N)c2nc(CNc3ccc(C(=O)NCCCC(=O)O)cc3)cnc2n1 (tested in a mixture with another compound)
dose: 12.5 mg/kg/injection, schedule: Q01DX001 (ip), vehicle: Klucel (hydroxypropylcellulose) (HPC)
  T/C: 92 % of control
dose: 25.0 mg/kg/injection, schedule: Q01DX001 (ip), vehicle: Klucel (hydroxypropylcellulose) (HPC)
  T/C: 97 % of control
dose: 100.0 mg/kg/injection, schedule: Q01DX001 (ip), vehicle: Klucel (hydroxypropylcellulose) (HPC)
  T/C: 108 % of control

## Clc1ccc(C(Cl)c2ccc(Cl)cc2)cc1
[17]
  T/C: 105 % of control
[18]
  T/C: 107 % of control
[19]
  T/C: 107 % of control

## CCCCCCC[n+]1cccc(C#N)c1
dose: 37.5 mg/kg/injection, schedule: Q04DX003 (ip), vehicle: saline
  T/C: 96 % of control
[6]
  T/C: 96 % of control
[7]
  T/C: 98 % of control
[8]
  T/C: 100 % of control
[9]
  T/C: 95 % of control

## c1cc2ccc1CCc1ccc(cc1)CC2
dose: 100.0 mg/kg/injection, schedule: Q01DX001 (ip), vehicle: saline with Tween-80
  T/C: 100 % of control
dose: 100.0 mg/kg/injection, schedule: Q01DX009 (ip), vehicle: saline sonified
  T/C: 94 % of control
dose: 200.0 mg/kg/injection, schedule: Q01DX001 (ip), vehicle: saline with Tween-80
  T/C: 102 % of control
dose: 200.0 mg/kg/injection, schedule: Q01DX009 (ip), vehicle: saline sonified
  T/C: 99 % of control
dose: 400.0 mg/kg/injection, schedule: Q01DX001 (ip), vehicle: saline with Tween-80
  T/C: 98 % of control
dose: 400.0 mg/kg/injection, schedule: Q01DX009 (ip), vehicle: saline sonified
  T/C: 93 % of control

## O=C(NSNc1ccccc1)c1ccccc1
[11]
  T/C: 110 % of control
[12]
  T/C: 103 % of control
[13]
  T/C: 100 % of control

## CC(C)(F)C(Br)C(=O)O (centres undefined)
dose: 200.0 mg/kg/injection, schedule: Q04DX002 (ip), vehicle: saline with Tween-80
  T/C: 93 % of control

## O=C(O)/C=C/c1c2ccc(=O)c(O)c-2oc2c(O)c(O)ccc12
dose: 10.0 mg/kg/injection, schedule: Q04DX003 (ip), vehicle: other
  T/C: 94 % of control
dose: 20.0 mg/kg/injection, schedule: Q04DX003 (ip), vehicle: other
  T/C: 98 % of control
dose: 40.0 mg/kg/injection, schedule: Q04DX003 (ip), vehicle: other
  T/C: 88 % of control
dose: 50.0 mg/kg/injection, schedule: Q04DX003 (ip), vehicle: other
  T/C: 106 % of control
dose: 80.0 mg/kg/injection, schedule: Q04DX003 (ip), vehicle: other
  T/C: 89 % of control
[20]
  T/C: 107 % of control

## Nc1ccc2ccc(O)cc2c1
dose: 200.0 mg/kg/injection, schedule: Q04DX003 (ip), vehicle: saline
  T/C: 121 % of control

## CCCCCCCCC(=O)NCc1ccc(OC)cc1
dose: 25.0 mg/kg/injection, schedule: Q01DX009 (ip), vehicle: other
  T/C: 93 % of control
dose: 50.0 mg/kg/injection, schedule: Q01DX009 (ip), vehicle: other
  T/C: 90 % of control
dose: 100.0 mg/kg/injection, schedule: Q01DX009 (ip), vehicle: other
  T/C: 100 % of control
[20]
  T/C: 95 % of control
[10]
  T/C: 92 % of control
dose: 200.0 mg/kg/injection, schedule: Q04DX003 (ip), vehicle: other
  T/C: 90 % of control
dose: 400.0 mg/kg/injection, schedule: Q01DX009 (ip), vehicle: other
  T/C: 91 % of control
dose: 400.0 mg/kg/injection, schedule: Q04DX003 (ip), vehicle: other
  T/C: 88 % of control

## S=c1n(Cc2ccccc2)cnc2ncnn12
dose: 50.0 mg/kg/injection, schedule: Q01DX009 (ip), vehicle: Klucel (hydroxypropylcellulose) (HPC)
  T/C: 93 % of control
[1]
  T/C: 97 % of control
[2]
  T/C: 95 % of control
